# From patent US9586951B2 (FUJIFILM Corporation, priority 2013, dated 2017)
# pIC50: −log10 of the molar value.
# Target: T1, ATM (Homo sapiens, UniProt Q13315)
# T1 construct: detecting phosphorylation of Chk2 in a human non-small cell lung cancer cell line NCI-H460 (ATCC company); host or cells: NCI-H460 human non-small cell lung cancer cells
# Assay: ATM inhibition test (phosphorylation of Chk2 generated by ionizing radiation, AlphaScreen SureFire)
# Type: cell-based
# Details: phosphorylated Chk2 in NCI-H460 cells, ionizing radiation 8Gy, 1 hour after test compound treatment; read-out: ATM inhibitory activity
# In short: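 NCI-H460 cells treated with compound for 1 hour, then irradiated with 8Gy and incubated 1 hour at 37° C. Phospho-Chk2 measured by AlphaScreen SureFire. Inhibition ratio calculated relative to untreated irradiated and non-irradiated wells.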
# T1 sequence (Q13315 whole entry): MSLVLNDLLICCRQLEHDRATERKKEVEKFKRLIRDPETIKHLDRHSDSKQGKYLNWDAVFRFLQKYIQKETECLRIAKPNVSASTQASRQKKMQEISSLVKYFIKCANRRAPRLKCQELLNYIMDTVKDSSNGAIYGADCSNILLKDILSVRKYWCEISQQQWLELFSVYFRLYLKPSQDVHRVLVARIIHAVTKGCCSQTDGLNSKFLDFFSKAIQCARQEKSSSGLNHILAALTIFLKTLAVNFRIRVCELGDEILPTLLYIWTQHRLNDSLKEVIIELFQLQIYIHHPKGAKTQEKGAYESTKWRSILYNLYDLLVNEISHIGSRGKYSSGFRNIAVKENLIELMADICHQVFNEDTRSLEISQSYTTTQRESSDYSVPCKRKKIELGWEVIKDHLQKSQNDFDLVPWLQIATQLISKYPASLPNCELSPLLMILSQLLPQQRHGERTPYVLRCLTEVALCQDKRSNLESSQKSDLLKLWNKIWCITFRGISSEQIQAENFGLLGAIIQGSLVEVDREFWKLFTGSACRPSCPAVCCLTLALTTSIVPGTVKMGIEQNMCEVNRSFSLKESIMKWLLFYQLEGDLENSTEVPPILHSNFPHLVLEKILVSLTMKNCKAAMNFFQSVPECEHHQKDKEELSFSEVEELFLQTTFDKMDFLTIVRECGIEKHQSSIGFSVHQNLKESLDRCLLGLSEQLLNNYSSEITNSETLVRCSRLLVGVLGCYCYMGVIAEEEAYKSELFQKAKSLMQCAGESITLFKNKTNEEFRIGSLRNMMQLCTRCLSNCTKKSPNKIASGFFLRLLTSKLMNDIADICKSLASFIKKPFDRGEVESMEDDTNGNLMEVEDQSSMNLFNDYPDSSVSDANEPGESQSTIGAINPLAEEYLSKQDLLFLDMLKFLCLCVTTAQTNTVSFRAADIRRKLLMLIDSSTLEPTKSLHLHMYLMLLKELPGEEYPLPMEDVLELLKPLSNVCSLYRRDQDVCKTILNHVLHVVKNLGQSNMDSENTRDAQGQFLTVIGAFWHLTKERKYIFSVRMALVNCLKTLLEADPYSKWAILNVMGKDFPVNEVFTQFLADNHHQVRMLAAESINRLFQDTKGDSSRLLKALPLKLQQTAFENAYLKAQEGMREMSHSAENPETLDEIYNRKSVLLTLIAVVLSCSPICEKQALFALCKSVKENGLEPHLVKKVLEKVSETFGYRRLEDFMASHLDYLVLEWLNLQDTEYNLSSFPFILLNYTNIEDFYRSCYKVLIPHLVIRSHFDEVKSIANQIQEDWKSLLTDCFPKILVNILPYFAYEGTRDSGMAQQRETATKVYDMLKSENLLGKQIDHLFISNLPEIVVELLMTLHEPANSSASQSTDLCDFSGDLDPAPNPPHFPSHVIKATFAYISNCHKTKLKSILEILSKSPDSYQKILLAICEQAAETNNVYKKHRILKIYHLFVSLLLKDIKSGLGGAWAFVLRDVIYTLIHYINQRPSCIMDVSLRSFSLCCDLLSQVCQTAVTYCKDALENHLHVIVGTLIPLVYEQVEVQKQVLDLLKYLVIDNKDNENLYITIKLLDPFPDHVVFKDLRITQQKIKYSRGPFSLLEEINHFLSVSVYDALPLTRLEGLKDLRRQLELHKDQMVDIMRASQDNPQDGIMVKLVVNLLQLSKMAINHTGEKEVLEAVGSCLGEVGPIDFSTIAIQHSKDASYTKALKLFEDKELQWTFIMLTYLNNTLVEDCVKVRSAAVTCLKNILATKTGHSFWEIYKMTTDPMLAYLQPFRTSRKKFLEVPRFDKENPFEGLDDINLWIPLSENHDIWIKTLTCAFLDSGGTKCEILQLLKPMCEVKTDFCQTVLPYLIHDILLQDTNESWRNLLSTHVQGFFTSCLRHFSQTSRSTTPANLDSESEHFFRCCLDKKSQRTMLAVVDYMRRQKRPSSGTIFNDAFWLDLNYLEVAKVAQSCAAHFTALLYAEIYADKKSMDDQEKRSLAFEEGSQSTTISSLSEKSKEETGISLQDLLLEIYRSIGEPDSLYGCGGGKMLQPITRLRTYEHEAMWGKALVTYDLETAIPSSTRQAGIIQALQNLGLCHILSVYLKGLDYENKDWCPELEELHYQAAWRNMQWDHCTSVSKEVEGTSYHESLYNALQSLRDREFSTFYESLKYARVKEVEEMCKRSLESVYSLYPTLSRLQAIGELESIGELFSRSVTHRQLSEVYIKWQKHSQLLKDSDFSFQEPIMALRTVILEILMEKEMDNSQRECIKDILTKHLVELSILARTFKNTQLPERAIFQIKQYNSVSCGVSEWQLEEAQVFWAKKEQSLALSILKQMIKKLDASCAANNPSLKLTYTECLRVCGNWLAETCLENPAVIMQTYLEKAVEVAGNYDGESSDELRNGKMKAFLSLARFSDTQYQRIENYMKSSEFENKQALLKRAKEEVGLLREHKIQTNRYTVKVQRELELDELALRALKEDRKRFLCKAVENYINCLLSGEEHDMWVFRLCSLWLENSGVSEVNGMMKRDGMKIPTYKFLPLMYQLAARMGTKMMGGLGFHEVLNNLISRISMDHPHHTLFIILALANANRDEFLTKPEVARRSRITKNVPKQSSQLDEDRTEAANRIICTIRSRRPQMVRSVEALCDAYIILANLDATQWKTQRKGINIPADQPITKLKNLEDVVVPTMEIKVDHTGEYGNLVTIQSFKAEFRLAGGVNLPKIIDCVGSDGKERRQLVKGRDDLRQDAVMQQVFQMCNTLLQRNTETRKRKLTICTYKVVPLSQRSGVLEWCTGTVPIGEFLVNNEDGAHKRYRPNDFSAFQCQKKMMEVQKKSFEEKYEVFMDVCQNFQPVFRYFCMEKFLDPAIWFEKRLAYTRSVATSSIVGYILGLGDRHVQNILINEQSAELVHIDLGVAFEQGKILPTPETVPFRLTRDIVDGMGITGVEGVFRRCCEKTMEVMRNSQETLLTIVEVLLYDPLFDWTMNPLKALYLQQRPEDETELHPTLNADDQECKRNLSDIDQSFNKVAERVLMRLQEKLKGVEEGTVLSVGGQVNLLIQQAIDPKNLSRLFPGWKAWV
row,Compound,pIC50
1,"CC(Nc1ccc2c(c1)Cc1cccc(-c3cc(N4CCOCC4)cc(=O)[nH]3)c1O2)c1ccncn1 (stereo not drawn) [Example 2-14-50, 4-Morpholino-6-(7-((1-(pyrimidin-4-yl)ethyl)amino)-9H-xanthen-4-yl) pyridin-2(1H)-one]",5.70 to 6.30
2,"CC(Nc1ccc2c(c1)Cc1cccc(-c3cc(N4CCOCC4)cc(=O)[nH]3)c1O2)c1ncc(CO)cn1 (stereo not drawn) [Example 2-14-66, 6-(7-((1-(5-(Hydroxymethyl)pyrimidin-2-yl)ethyl)amino)-9H-xanthen-4-yl)-4-morpholino pyridin-2(1H)-one]",5.70 to 6.30
3,"CC(Nc1ccc2c(c1)Cc1cccc(-c3cc(N4CCOCC4)cc(=O)[nH]3)c1O2)c1ncc(CN2CCOCC2)cn1 (stereo not drawn) [Example 2-14-67, 4-Morpholino-6-(7-((1-(5-(morpholinomethyl)pyrimidin-2-yl)ethyl)amino)-9H-xanthen-4-yl)pyridin-2 (1H)-one]",5.70 to 6.30
4,"Cc1nccc(CNc2ccc3c(c2)Cc2cccc(-c4cc(N5CCOCC5)cc(=O)[nH]4)c2O3)n1 [Example 2-14-68, 6-(7-(((2-Methylpyrimidin-4-yl)methyl)amino)-9H-xanthen-4-yl)-4-morpholino pyridin-2(1H)-one]",5.70 to 6.30
5,"CC(Nc1ccc2c(c1)Cc1cccc(-c3cc(N4CCOCC4)cc(=O)[nH]3)c1O2)C1CC1 (stereo not drawn) [Example 2-14-70, 6-(7-((1-Cyclopropylethyl)amino)-9H-xanthen-4-yl)-4-morpholino pyridin-2(1H)-one]",5.70 to 6.30
6,"CCOC(=O)CNc1ccc2c(c1)Cc1cccc(-c3cc(N4CCOCC4)cc(=O)[nH]3)c1O2 [Example 2-14-71, Ethyl 2-((5-(4-morpholino-6-oxo-1,6-dihydropyridin-2-yl)-9H-xanthen-2-yl)amino) acetate]",6.30 to 7.00
7,"CCOC(=O)C(C)Nc1ccc2c(c1)Cc1cccc(-c3cc(N4CCOCC4)cc(=O)[nH]3)c1O2 (stereo not drawn) [Example 2-14-72, Ethyl 2-((5-(4-morpholino-6-oxo-1,6-dihydropyridin-2-yl)-9H-xanthen-2-yl)amino) propanoate]",6.30 to 7.00
8,"Cc1nccnc1CNc1ccc2c(c1)Cc1cccc(-c3cc(N4CCOCC4)cc(=O)[nH]3)c1O2 [Example 2-14-75, 6-(7-(((3-Methylpyrazin-2-yl)methyl)amino)-9H-xanthen-4-yl)-4-morpholino pyridin-2(1H)-one]",6.30 to 7.00
9,"Cc1cnc(CNc2ccc3c(c2)Cc2cccc(-c4cc(N5CCOCC5)cc(=O)[nH]4)c2O3)cn1 [Example 2-14-76, 6-(7-(((5-Methylpyrazin-2-yl)methyl)amino)-9H-xanthen-4-yl)-4-morpholino pyridin-2(1H)-one]",6.30 to 7.00
10,"CC(Nc1ccc2c(c1)Cc1cccc(-c3cc(N4CCOCC4)cc(=O)[nH]3)c1O2)c1cnccn1 (stereo not drawn) [Example 2-14-77, 4-Morpholino-6-(7-((1-(pyrazin-2-yl)ethyl)amino)-9H-xanthen-4-yl)pyridin-2 (1H)-one]",6.30 to 7.00
11,"CC(Nc1ccc2c(c1)Cc1cccc(-c3cc(N4CCOCC4)cc(=O)[nH]3)c1O2)c1ncccn1 (stereo not drawn) [Example 2-14-78, 4-Morpholino-6-(7-((1-(pyrimidin-2-yl)ethyl)amino)-9H-xanthen-4-yl) pyridin-2(1H)-one]",6.30 to 7.00
12,"Cc1ccnc(C(C)Nc2ccc3c(c2)Cc2cccc(-c4cc(N5CCOCC5)cc(=O)[nH]4)c2O3)n1 (stereo not drawn) [Example 2-14-79, 6-(7-((1-(4-Methylpyrimidin-2-yl)ethyl)amino)-9H-xanthen-4-yl)-4-morpholino pyridin-2(1H)-one]",6.30 to 7.00
13,"Cc1ccnc(C(CF)Nc2ccc3c(c2)Cc2cccc(-c4cc(N5CCOCC5)cc(=O)[nH]4)c2O3)n1 (stereo not drawn) [Example 2-14-81, 6-(7-((2-Fluoro-1-(4-methylpyrimidin-2-yl)ethyl)amino)-9H-xanthen-4-yl)-4-morpholino pyridin-2(1H)-one]",6.30 to 7.00
14,"Cc1ccnc(C(CO)Nc2ccc3c(c2)Cc2cccc(-c4cc(N5CCOCC5)cc(=O)[nH]4)c2O3)n1 (stereo not drawn) [Example 2-14-82, 6-(7-((2-Hydroxy-1-(4-methylpyrimidin-2-yl)ethyl)amino)-9H-xanthen-4-yl)-4-morpholino pyridin-2(1H)-one]",5.70 to 6.30
15,"Cc1cnc(C(CF)Nc2ccc3c(c2)Cc2cccc(-c4cc(N5CCOCC5)cc(=O)[nH]4)c2O3)nc1 (stereo not drawn) [Example 2-14-83, 6-(7-((2-Fluoro-1-(5-methylpyrimidin-2-yl)ethyl)amino)-9H-xanthen-4-yl)-4-morpholino pyridin-2(1H)-one]",6.30 to 7.00
16,"CC1CC(Nc2ccc3c(c2)Cc2cccc(-c4cc(N5CCOCC5)cc(=O)[nH]4)c2O3)CCN1C(=O)OC(C)(C)C (stereo not drawn) [Example 2-14-84, tert-Butyl 2-methyl-4-((5-(4-morpholino-6-oxo-1,6-dihydropyridin-2-yl)-9H-xanthen-2-yl)amino) piperidine-1-carboxylate]",5.70 to 6.30
17,"CC(Nc1ccc2c(c1)Cc1cccc(-c3cc(N4CCOCC4)cc(=O)[nH]3)c1O2)C(=O)N1CCCC1 (stereo not drawn) [Example 2-15, 4-Morpholino-6-(7-((1-oxo-1-(pyrrolidin-1-yl)propan-2-yl)amino)-9H-xanthen-4-yl)pyridin-2(1H)-one]",6.30 to 7.00

# The next lines start with the values.
row,pIC50,Compound
1,6.30 to 7.00,"Cc1cncc(C(C)Nc2ccc3c(c2)Cc2cccc(-c4cc(N5CCOCC5)cc(=O)[nH]4)c2O3)n1 (stereo not drawn) [Example 2-14-49, 6-(7-((1-(6-Methylpyrazin-2-yl)ethyl)amino)-9H-xanthen-4-yl)-4-morpholino pyridin-2(1H)-one]"
2,6.30 to 7.00,"Cc1cc(C(C)Nc2ccc3c(c2)Cc2cccc(-c4cc(N5CCOCC5)cc(=O)[nH]4)c2O3)ncn1 (stereo not drawn) [Example 2-14-52, 6-(7-((1-(6-Methylpyrimidin-4-yl)ethyl)amino)-9H-xanthen-4-yl)-4-morpholino pyridin-2 (1H)-one]"
3,6.30 to 7.00,"CC(Nc1ccc2c(c1)Cc1cccc(-c3cc(N4CCOCC4)cc(=O)[nH]3)c1O2)c1cnc(N(C)C)cn1 (stereo not drawn) [Example 2-14-53, 6-(7-((1-(5-(Dimethylamino)pyrazin-2-yl)ethyl)amino)-9H-xanthen-4-yl)-4-morpholino pyridin-2(1H)-one]"
4,6.30 to 7.00,"CNc1ncc(C(C)Nc2ccc3c(c2)Cc2cccc(-c4cc(N5CCOCC5)cc(=O)[nH]4)c2O3)cn1 (stereo not drawn) [Example 2-14-54, 6-(7-((1-(2-(Methylamino)pyrimidin-5-yl)ethyl)amino)-9H-xanthen-4-yl)-4-morpholino pyridin-2(1H)-one]"
5,6.30 to 7.00,"COc1ncc(C(C)Nc2ccc3c(c2)Cc2cccc(-c4cc(N5CCOCC5)cc(=O)[nH]4)c2O3)cn1 (stereo not drawn) [Example 2-14-55, 6-(7-((1-(2-Methoxypyrimidin-5-yl)ethyl)amino)-9H-xanthen-4-yl)-4-morpholino pyridin-2 (1H)-one]"
6,6.30 to 7.00,"COc1ccnc(C(C)Nc2ccc3c(c2)Cc2cccc(-c4cc(N5CCOCC5)cc(=O)[nH]4)c2O3)n1 (stereo not drawn) [Example 2-14-56, 6-(7-((1-(4-Methoxypyrimidin-2-yl)ethyl)amino)-9H-xanthen-4-yl)-4-morpholino pyridin-2(1H)-one]"
7,6.30 to 7.00,"COc1cncc(C(C)Nc2ccc3c(c2)Cc2cccc(-c4cc(N5CCOCC5)cc(=O)[nH]4)c2O3)n1 (stereo not drawn) [Example 2-14-57, 6-(7-((1-(6-Methoxypyrazin-2-yl)ethyl)amino)-9H-xanthen-4-yl)-4-morpholino pyridin-2(1H)-one]"
8,6.30 to 7.00,"CC(Nc1ccc2c(c1)Cc1cccc(-c3cc(N4CCOCC4)cc(=O)[nH]3)c1O2)c1ccnc(C#N)n1 (stereo not drawn) [Example 2-14-58, 4-(1-((5-(4-Morpholino-6-oxo-1,6-dihydropyridin-2-yl)-9H-xanthen-2-yl)amino)ethyl)pyrimidine-2-carbonitrile]"
9,6.30 to 7.00,"CC(Nc1ccc2c(c1)Cc1cccc(-c3cc(N4CCOCC4)cc(=O)[nH]3)c1O2)c1cc(Cl)ncn1 (stereo not drawn) [Example 2-14-59, 6-(7-((1-(6-Chloropyrimidin-4-yl)ethyl)amino)-9H-xanthen-4-yl)-4-morpholino pyridin-2(1H)-one]"
10,6.30 to 7.00,"CC(Nc1ccc2c(c1)Cc1cccc(-c3cc(N4CCOCC4)cc(=O)[nH]3)c1O2)c1cc(C#N)ncn1 (stereo not drawn) [Example 2-14-60, 6-(1-((5-(4-Morpholino-6-oxo-1,6-dihydropyridin-2-yl)-9H-xanthen-2-yl)amino)ethyl)pyrimidine-4-carbonitrile]"
11,6.30 to 7.00,"COc1nccc(C(C)Nc2ccc3c(c2)Cc2cccc(-c4cc(N5CCOCC5)cc(=O)[nH]4)c2O3)n1 (stereo not drawn) [Example 2-14-63, 6-(7-((1-(2-Methoxypyrimidin-4-yl)ethyl)amino)-9H-xanthen-4-yl)-4-morpholino pyridin-2(1H)-one]"
12,6.30 to 7.00,"CC(Nc1ccc2c(c1)Cc1cccc(-c3cc(N4CCOCC4)cc(=O)[nH]3)c1O2)c1nccc(CF)n1 (stereo not drawn) [Example 2-14-64, 6-(7-((1-(4-(Fluoromethyl)pyrimidin-2-yl)ethyl)amino)-9H-xanthen-4-yl)-4-morpholino pyridin-2(1H)-one]"
13,6.30 to 7.00,"CC(Nc1ccc2c(c1)Cc1cccc(-c3cc(N4CCOCC4)cc(=O)[nH]3)c1O2)c1cc(CF)ncn1 (stereo not drawn) [Example 2-14-65, 6-(7-((1-(6-(Fluoromethyl)pyrimidin-4-yl)ethyl)amino)-9H-xanthen-4-yl)-4-morpholino pyridin-2(1H)-one]"
14,6.30 to 7.00,"O=c1cc(N2CCOCC2)cc(-c2cccc3c2Oc2ccc(NCc4ccnc(N5CCOCC5)n4)cc2C3)[nH]1 [Example 2-14-69, 4-Morpholino-6-(7-(((2-morpholinopyrimidin-4-yl)methyl)amino)-9H-xanthen-4-yl)pyridin-2(1H)-one]"
15,6.30 to 7.00,"CCOC(=O)c1cccc(CNc2ccc3c(c2)Cc2cccc(-c4cc(N5CCOCC5)cc(=O)[nH]4)c2O3)n1 [Example 2-14-73, Ethyl 6-(((5-(4-morpholino-6-oxo-1,6-dihydropyridin-2-yl)-9H-xanthen-2-yl)amino)methyl)picolinate]"
16,6.30 to 7.00,"Cc1cncc(CNc2ccc3c(c2)Cc2cccc(-c4cc(N5CCOCC5)cc(=O)[nH]4)c2O3)n1 [Example 2-14-74, 6-(7-(((6-Methylpyrazin-2-yl)methyl)amino)-9H-xanthen-4-yl)-4-morpholino pyridin-2(1H)-one]"
